This is an account of results in ChEMBL document CHEMBL4196045, “Identification of cisapride as new inhibitor of putrescine uptake in Trypanosoma cruzi by combined ligand- and structure-based virtual screening” (Eur J Med Chem, 2018).

The structures appear in SMILES notation. Active and inactive are the calls of the source. No cut-off for these calls is given here.

The test system of test [1] is Trypanosoma cruzi. Description: Antitrypanosomal activity against Trypanosoma cruzi Y epimastigotes after 7 days by hemocytometry. The note with it: 168 h. Type of test: functional, organism-based.
Test [2] concerns Trypanosoma cruzi. Briefly: Inhibition of Trypanosoma cruzi Y epimastigotes AAAP411 assessed as reduction in [1,4-14C]-arginine uptake in presence of non-radioactive arginine by liquid scintillation counting method.
The target of test [3] is T1, Putative amino acid transporter PAT12 (Trypanosoma cruzi) (UniProt Q6QT93).
T1 sequence (whole entry): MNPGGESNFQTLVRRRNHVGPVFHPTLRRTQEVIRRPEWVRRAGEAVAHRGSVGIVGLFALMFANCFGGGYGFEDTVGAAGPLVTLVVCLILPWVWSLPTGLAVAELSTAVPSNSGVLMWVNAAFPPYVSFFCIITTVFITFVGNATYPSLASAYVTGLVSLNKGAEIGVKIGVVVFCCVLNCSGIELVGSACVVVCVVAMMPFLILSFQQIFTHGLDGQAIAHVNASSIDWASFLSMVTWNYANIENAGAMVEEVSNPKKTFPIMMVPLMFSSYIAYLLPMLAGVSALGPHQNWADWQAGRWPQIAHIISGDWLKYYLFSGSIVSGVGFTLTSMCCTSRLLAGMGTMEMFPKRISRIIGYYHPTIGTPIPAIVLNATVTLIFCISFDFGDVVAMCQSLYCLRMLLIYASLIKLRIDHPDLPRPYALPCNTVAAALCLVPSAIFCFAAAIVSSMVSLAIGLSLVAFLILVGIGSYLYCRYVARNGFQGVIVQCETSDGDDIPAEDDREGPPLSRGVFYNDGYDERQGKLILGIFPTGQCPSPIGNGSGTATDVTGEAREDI
Description: Inhibition of Trypanosoma cruzi Y epimastigotes PAT12 assessed as reduction in initial velocity of [14C]-putrescine uptake at 50 uM in presence of non-radioactive putrescine by liquid scintillation counting method.

Test [4] deals with Trypanosoma cruzi. Description: Antitrypanosomal activity against Trypanosoma cruzi Y epimastigotes at 100 uM after 7 days by hemocytometry. Type of test: functional, organism-based.
The test system of test [5] is Trypanosoma cruzi. Briefly: Antitrypanosomal activity against Trypanosoma cruzi Y epimastigotes at 200 uM after 7 days by hemocytometry. Type of test: functional, organism-based.

As a reminder, the IC50 is the concentration needed to halve the response being measured. A low value points to greater potency in that assay. Take `NCc1ccccc1OC1CCCC1`: the IC50 in the test with Trypanosoma cruzi [1] turned out to be 41.1 µM. Moreover, the inhibition entry (in the test on Trypanosoma cruzi [2]; in test [3]) was “inactive” each time. The result in the test on Trypanosoma cruzi [4] was Active.

`CN(CCCOc1ccc2c(c1)OCO2)C1CCC(CO)CC1` (stereo not drawn): the inhibition entry in test [3] was “inactive”. The outcome in the test with Trypanosoma cruzi [5] was inactive.

`Cc1cccc(C)c1OCC(C)N` (racemic): the inhibition result in test [3] was “inactive”. In the test with Trypanosoma cruzi [5], the outcome was inactive.
